For 1 molecule, IC50 and viability results are on record in US11260100B2, “Compositions targeting the interaction domain between p27Kip1 and Brk and methods of use thereof to inhibit p27 Y phosphorylation and cdk4 activity” (The Research Foundation for the State University of New York, priority 2014, dated 2022).

Data set [1] has as its system MCF7 WT Brk expressing cells. The experiment in a line: PD0332991 inhibitor treatment, proliferation by cell counting. It is filed as cell-based. Particulars: Homo sapiens, 48 h post treatment, read-out: IC50 (concentration needed to inhibit proliferation by 50%). As to the method: (§1) Immunoprecipitation with IgG served as a negative control (FIG. 6C). DNA with Hoechst stain is in blue and is merged with red and green staining (FIG. 6D). (FIG. 6E) Cdk4 was immunoprecipitated from the lysates and recombinant Rb was added to perform an in vitro kinase assay in the presence of ATP Immunoblot analysis was performed to probe for Rb, Ser780 pRb and cdk4 Immunoprecipitation with IgG served as a negative control. (FIG. 6F) Cells were treated with different concentrations of PD0332291 or DMSO as a control at Day 2. Total cell numbers were analyzed by counting 24 and 48 hours post treatment to determine IC50 values. (FIG. 6G) Cells were treated with different concentration of PD032291 or DMSO and analyzed by PI staining and FACS analysis. % G1 content is plotted.
(§2) The PCR fragments were ligated to the T7pGEMEX human His-p27 or T7pGEMEX human Flag-p27 plasmid for expression in E. coli. Mutants Y74F, Y88F, and Y88/89F were previously described (12). Flag-tagged p27 mutants were purified by Flag-immunoprecipitation with Flag antibody (M-2, Sigma F-18C9) and eluted with Flag peptide (Sigma F-4799) according to manufacturer's protocol. His-tagged p27 mutants were purified by FPLC via his-trap affinity chromatography (His-Trap HP, GE Healthcare 71-5247-01). The affinity column was stripped according to manufacturer's protocol, then washed with 5 column volumes of 100 mM CoCl2. The crude material was applied with a loading buffer consisting of 6 M urea, 500 mM NaCl, 50 mM Tris-HCl, pH 7.5 and 20% glycerol. The material was washed with 500 mM NaCl, 50 mM Tris-HCl, pH 7.5 and 10% glycerol. The purified material was eluted with 500 mM imidazole,20 mM Hepes pH 7.4 and 1 M KCl. The protein was then dialyzed overnight in a solution of 25 mM Hepes pH 7.7, 150 mM NaCl, 5 mM MgCl2 and 0.05% NP40.

A further data set concerns Mock MCF7 cells. Described as above. Conditions: Homo sapiens, 48 h post treatment, read-out: IC50 (concentration needed to inhibit proliferation by 50%). The data set is classed as cell-based. As to the method: as §1, §2
The next data set deals with MDA MB-468 cells. The data set is described as above. It is filed as cell-based. Particulars: Homo sapiens, 48 h post treatment, read-out: IC50 (concentration needed to inhibit proliferation by 50%). As to the method: as §1, §2
For the next data set, the system named is MCF7 (ER/PR+, Her2-). The experiment in a line: Palbociclib sensitivity of breast cancer line. It is filed as cell-based. Particulars: Homo sapiens; MCF7, high responder.
The subject of data set [2] is MCF7 mock, WT, KM and YF cells. The data set is described as follows: Viability of PD0332991 treated Brk expressing MCF7 lines. The data set is classed as cell-based, human. Conditions: all concentrations of the drug.
Excerpt: as §2, with “NP40. All purified proteins were analyzed by Coomassie and immunoblot analysis. […] Cells were counted using the automated cell counter (BioRad TC-20).Viability was measured by Trypan Blue staining and counted using the cell counter. • Immunoprecipitation. […]” for “NP40.”

Turning to `CC(=O)c1c(C)c2cnc(Nc3ccc(N4CCNCC4)cn3)nc2n(C2CCCC2)c1=O` [PD0332991], the IC50 in data set [1] is greater than 600 nM; with Mock MCF7 cells it was 150 nM; in the data set with MDA MB-468 cells, 350 nM; with MCF7 (ER/PR+, Her2-), 200 nM. The viability entry in data set [2] is listed as “unchanged”.
